According to patent publication US20050100983A1, “Cell-free methods for identifying compounds that affect toll-like receptor 9 (TLR9) signaling” (Coley Pharmaceutical GmbH, priority 2003, published 2005):

Tests used:
[1] = molecular target: T1, mTLR9ect (extracellular domain of murine TLR9 fused to human IgG1-Fc) (Mus musculus, UniProt Q9EQU3); assay: SPR biosensor analysis of mTLR9ect binding to immobilized CpG-DNA
T1 construct: mTLR9ect (aa 1-816); made in house
T1 sequence (Q9EQU3 26-816): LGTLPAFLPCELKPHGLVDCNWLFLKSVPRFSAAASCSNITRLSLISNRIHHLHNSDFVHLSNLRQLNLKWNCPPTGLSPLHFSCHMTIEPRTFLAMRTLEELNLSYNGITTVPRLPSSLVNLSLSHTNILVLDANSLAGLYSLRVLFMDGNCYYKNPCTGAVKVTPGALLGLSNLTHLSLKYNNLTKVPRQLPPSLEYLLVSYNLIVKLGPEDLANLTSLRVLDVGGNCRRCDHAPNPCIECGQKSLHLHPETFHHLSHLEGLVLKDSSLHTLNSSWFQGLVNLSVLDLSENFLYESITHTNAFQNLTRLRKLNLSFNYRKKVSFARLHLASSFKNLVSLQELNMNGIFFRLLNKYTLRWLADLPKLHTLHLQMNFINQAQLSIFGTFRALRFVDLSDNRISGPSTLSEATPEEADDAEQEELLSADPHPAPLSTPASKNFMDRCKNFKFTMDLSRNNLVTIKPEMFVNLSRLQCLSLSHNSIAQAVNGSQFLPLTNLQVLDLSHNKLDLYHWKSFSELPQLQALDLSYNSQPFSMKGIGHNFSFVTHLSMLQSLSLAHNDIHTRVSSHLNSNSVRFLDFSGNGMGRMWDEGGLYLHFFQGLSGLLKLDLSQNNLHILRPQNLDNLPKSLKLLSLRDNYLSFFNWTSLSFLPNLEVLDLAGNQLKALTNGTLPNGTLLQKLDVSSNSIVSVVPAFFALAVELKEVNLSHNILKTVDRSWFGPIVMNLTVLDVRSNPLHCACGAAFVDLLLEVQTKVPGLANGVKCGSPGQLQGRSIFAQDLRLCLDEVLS
From the text: (§1) Protein. Recombinant fusion proteins consisting of the extracellular domain of Toll-like receptors mTLR9ect (aa 1-816), mTLR9ect-mut (see below) (aa 1-816), hTLR9ect (aa 1-815) and mTLR2ect (aa 1-587) fused to human IgG1-Fc were constructed by amplifying the corresponding extracellular domain and ligating the fragment in frame into a pcDNA3.1(−) (Invitrogen, Netherlands) vector containing the coding sequence for human IgG1-Fc. Fusion proteins were stably expressed in HEK 293 cells and purified from cell lysates by protein A affinity chromatography.
(§2) SPR biosensor analysis. Real-time binding of TLR9 or TLR2 was measured by surface plasmon resonance biosensor technology using the BiaCore X system (Uppsala, Sweden). For analysis of TLR9 and TLR2 interaction, biotinylated CpG-DNA and non-CpG-DNA, or biotinylated Pam3CysK4 and PHCK4, respectively, were loaded in running buffer (50 mM MES, 150 mM NaCl, 1 mM MgCl2 at pH 6.5) on SA chips precoated with streptavidin (Biacore AB, Uppsala, Sweden). Non-CpG-DNA or PHCK4 (Wiesmuller K H et al. (1989) Vaccine 7:29-33) served as reference for CpG-DNA and Pam3CysK4 interaction (structure or sequence in Table 1). […] TLR proteins were introduced at 200 nM or as indicated in 40 μl running buffer at a flow rate of 10 μl/min. Binding was measured at 25° C. for 750 s (delay time 300 s). […] Sensorgrams were recorded and kinetic data were calculated by the BiaCore Evaluation program (Biacore, version 3.0.1). Regeneration of the chip was performed by injection of 10 μl 50 mM NaOH, 1 M NaCl and extensive re-equilibration.
For detailed analysis of TLR9-CpG-DNA interaction, surface plasmon resonance (SPR) biosensor based technology was used with CpG- and non-CpG-DNA immobilized onto separate flow cells of a streptavidin-coated chip. Under these settings non-CpG-DNA served as reference for specific binding (see Methods). Binding of mTLR9ect to DNA was CpG-sequence-specific and increased in a dose-dependent manner. […] Using the 1:1 binding model of the BioEvaluation software as fitting algorithm and on the basis of four different mTLR9ect concentrations ranging from 50 to 300 nM, a dissociation constant (Kd) of 200 nM was obtained with low chi-squared residuals (4,76). […] Weber AN et al. (2003) Nat. Immunol. 4:794-800. Furthermore the concentration of CpG-DNA 1668 (SEQ ID NO:1) for half-maximal activation of murine TLR9 has been recently calculated as 70 nM which correlates well with the KD obtained here. Bauer S et al. (2001) Proc. Natl. Acad. Sci. U.S.A. 98:9237-9242. […] This difference in affinity correlates with the observed species-specific variance in CpG-motif recognition, as well as activation potential. Bauer S et al. (2001) Proc. Natl. Acad. Sci. U.S.A. 98:9237-9242.

mTLR9ect = molecular target: T2, mTLR9ect (Mus musculus, UniProt Q9EQU3); assay: UV-crosslinking of mTLR9ect with 32P-labeled DNA and SDS-PAGE; format: binding, murine; conditions: SDS-PAGE, complex at 150 kDa
T2 construct: mTLR9ect (aa 1-816); made in house
T2 sequence (Q9EQU3 26-816): T1 sequence (Q9EQU3 26-816)
From the text: FIG. 1B is an image of an SDS-PAGE gel depicting purified proteins from FIG. 1A UV-crosslinked with ^32P-labeled CpG- or non-CpG-DNA, separated by SDS-PAGE, and autoradiographed. TLR9 and free DNA are highlighted.
Bauer S et al. (2001) Proc. Natl. Acad. Sci. U.S.A. 98:9237-9242. To assess binding of TLR9 to CpG-DNA, a recombinant fusion protein consisting of the extracellular domain of murine TLR9 and human IgG 1-Fc (mTLR9ect) was constructed. The extracellular domain of murine TLR2 also fused to IgG1-Fc (mTLR2ect) served as control. Proteins were expressed in HEK 293 cells and purified via protein A affinity chromatography (FIG. 1A). Under denaturing and non-reducing conditions mTLR9ect and mTLR2ect are approximately 10% in a monomeric and 90% in a dimeric form. Dimerization of the proteins is probably mediated by the IgG 1-Fc fusion partner which forms disulfide bonds (FIG. 1A). Initially, binding of mTLR9ect to radiolabeled DNA was determined by UV-crosslinking and subsequent SDS-PAGE.

human TLR9ect = molecular target: T3, human TLR9ect (Homo sapiens, UniProt Q9NR96); assay: SPR biosensor analysis of human TLR9ect binding to CpG-DNA 2006; conditions: non-CpG-DNA 2006GC as control
T3 construct: hTLR9ect (aa 1-815); made in house
T3 sequence (Q9NR96 26-815): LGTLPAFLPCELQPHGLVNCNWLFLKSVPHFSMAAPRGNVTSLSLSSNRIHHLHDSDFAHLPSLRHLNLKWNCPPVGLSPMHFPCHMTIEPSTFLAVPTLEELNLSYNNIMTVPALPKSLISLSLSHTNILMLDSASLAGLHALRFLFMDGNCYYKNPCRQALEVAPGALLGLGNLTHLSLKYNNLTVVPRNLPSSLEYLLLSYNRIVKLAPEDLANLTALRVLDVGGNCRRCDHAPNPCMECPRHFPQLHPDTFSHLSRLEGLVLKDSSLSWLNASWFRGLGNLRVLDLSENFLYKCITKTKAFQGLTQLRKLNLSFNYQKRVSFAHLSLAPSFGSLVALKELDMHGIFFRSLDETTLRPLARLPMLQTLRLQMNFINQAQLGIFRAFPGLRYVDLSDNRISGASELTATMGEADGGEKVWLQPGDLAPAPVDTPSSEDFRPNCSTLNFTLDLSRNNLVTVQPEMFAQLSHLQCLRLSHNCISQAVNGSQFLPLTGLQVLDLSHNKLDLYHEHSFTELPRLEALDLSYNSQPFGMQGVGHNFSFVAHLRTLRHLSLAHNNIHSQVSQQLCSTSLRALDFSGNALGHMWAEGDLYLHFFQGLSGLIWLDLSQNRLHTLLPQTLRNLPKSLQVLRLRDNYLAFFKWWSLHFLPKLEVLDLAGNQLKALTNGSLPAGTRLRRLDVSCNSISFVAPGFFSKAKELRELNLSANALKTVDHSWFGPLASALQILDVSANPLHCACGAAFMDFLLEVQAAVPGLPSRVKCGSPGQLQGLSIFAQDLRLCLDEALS
From the text: as §1
SPR biosensor analysis. Real-time binding of TLR9 or TLR2 was measured by surface plasmon resonance biosensor technology using the BiaCore X system (Uppsala, Sweden). For analysis of TLR9 and TLR2 interaction, biotinylated CpG-DNA and non-CpG-DNA, or biotinylated Pam3CysK4 and PHCK4, respectively, were loaded in running buffer (50 mM MES, 150 mM NaCl, 1 mM MgCl2 at pH 6.5) on SA chips precoated with streptavidin (Biacore AB, Uppsala, Sweden). Non-CpG-DNA or PHCK4 (Wiesmuller K H et al. (1989) Vaccine 7:29-33) served as reference for CpG-DNA and Pam3CysK4 interaction (structure or sequence in Table 1). […] Binding was measured at 25° C. for 750 s (delay time 300 s). […] Sensorgrams were recorded and kinetic data were calculated by the BiaCore Evaluation program (Biacore, version 3.0.1). […]

murine TLR9 = assay: NF-κB luciferase assay, HEK 293 cells transfected with murine TLR9; format: cell-based; conditions: TLR9-transfected HEK 293 cells, 1 μM CpG-DNA, inhibitor added 15 min prior to stimulation
Experimental: Activation is expressed as fold induction compared to no stimulation. NF-κB luciferase assay. For monitoring transient NF-κB activation, 3×10^6 HEK 293 cells were electroporated at 200 volt and 950 μF with 20 ng of a NF-κB luciferase reporter plasmid (kindly provided by Patrick Baeuerle, Munich, Germany) and 1 μg mTLR2 (kindly provided by Tularik, Inc., South San Francisco, USA), mTLR9, or mTLR9-mut expression plasmid. Cells were seeded at 10^5 cells per well and after overnight culture stimulated with 1 μM phosphorothioated CpG-DNA 1668 (SEQ ID NO:1), 1 μM non-CpG-DNA 1668GC (SEQ ID NO:3), 1 μg/ml Pam[…][…] or 1 μg/ml PHCK4 for further 8 hours. […] Stimulated cells were lysed using reporter lysis buffer (Promega, Mannheim, Germany) and lysates were assayed for luciferase activity using a Berthold luminometer (Wildbad, Germany) according to the manufacturer's instruction.

TLR9-CpG-DNA interaction = molecular target: T4, TLR9-CpG-DNA interaction (Mus musculus, UniProt Q9EQU3); assay: SPR biosensor analysis of inhibitors on TLR9-CpG-DNA interaction; format: binding, murine; conditions: SPR, 200 nM TLR9, immobilized CpG-DNA 1668
T4 construct: mTLR9ect (aa 1-816); made in house
T4 sequence (Q9EQU3 26-816): T1 sequence (Q9EQU3 26-816)
Experimental: Biotinylated CpG-DNA 1668 (SEQ ID NO:1) and non-CpG-DNA 1668GC (SEQ ID NO:3) were immobilized on streptavidin sensor chip flow cells 1 and 2, respectively.
FIG. 2B is a graph depicting SPR biosensor analysis of quinoquine (QC) on TLR9-PAMP interaction. Biotinylated CpG-DNA 1668 (SEQ ID NO:1) and non-CpG-DNA 1668GC (SEQ ID NO:3) were immobilized on streptavidin sensor chip flow cells 1 and 2, respectively. 200 nM TLR9 and indicated concentrations of quinoquine were injected and sensorgrams recorded.
as §2

5′-TCCATGAGCTTCCTGATGCT-3′ (chemistry not given here) [non-CpG-DNA 1668GC, non-CpG control oligodeoxynucleotide]
release of bound mTLR9ect by free injected DNA ([1]; competition, free DNA added in dissociation phase): did not lead to the release | effect of pre-incubation of mTLR9ect with DNA on binding to chip-immobilized CpG-DNA ([1]; pre-incubation prior to SPR analysis): no inhibitory effect | binding of mTLR9ect to radiolabeled DNA (mTLR9ect): bound only weakly

5′-TCGTCGTTTTGTCGTTTTGTCGTT-3′ [CpG-DNA 2006]
interaction with human TLR9ect (human TLR9ect): specifically interacted

CO/C1=C\C(C)=C\[C@@H](C)[C@@H](O)[C@@H](C)C/C(C)=C/C=C/[C@H](OC)[C@@H]([C@@H](C)[C@@H](O)[C@H](C)[C@@]2(O)C[C@@H](O)[C@H](C)[C@@H](C(C)C)O2)OC1=O [bafilomycin A1]
inhibition of TLR9-driven NF-κB activation (murine TLR9): inhibited cell activation | inhibition of binding of TLR9 to CpG-DNA (TLR9-CpG-DNA interaction): did not influence
